Experimental data taken from patent US20230286995A1, “METABOLICALLY STABLE PYRIMIDINYL DIHYDROQUINOXALINONES AS TUBULIN POLYMERIZATION INHIBITORS” (UNIVERSITY OF TENNESSEE RESEARCH FOUNDATION, priority 2022, published 2023).
Where two headings read alike, the source gives them in different places.

Tests used:
Assay in all cases: Cytotoxicity assay (MTS, 72 h)
[1] = tested on: PANC-1; type: cell-based; details: Homo sapiens
Description: Mia PaCa-2 and PANC-1 cells were seeded in 96-well plates at 4000 and 5000 cells per well, respectively.
Cytotoxicity Assay. […] Each experiment consisted of four replicates.

[2] = tested on: M14; details: Homo sapiens
Description: (§1) Depending on their growth rate, cancer cells were seeded at a concentration of 3,500-5,000 cells per well in 96-well plate. On next day, the culture medium was replaced with the fresh medium containing the test compounds at concentrations ranging from 0.1 nM to 3 μM in four replicates. […] Absorbance was recorded at 490 nm using a microplate reader (BioTek Instruments Inc., Winooski, Vt.). IC50 values were calculated by GraphPad Prism software (San Diego, Calif.).
(§2) Cancer cells were seeded at a concentration of 3,500-5,000 cells per well in a 96-well plate. […] Each experiment consisted of four replicates. […] A microplate reader was used to record the absorbance at 490 nm (BioTek Instruments Inc., Winooski, Vt.). IC50 values were calculated by GraphPad Prism software (San Diego, Calif.).

[3] = tested on: Mia PaCa-2; type: cell-based; details: Homo sapiens
Description: Cytotoxicity Assay. Cancer cells were seeded at a concentration of 3,500-5,000 cells per well in a 96-well plate. […] Each experiment consisted of four replicates. […] A microplate reader was used to record the absorbance at 490 nm (BioTek Instruments Inc., Winooski, Vt.). IC50 values were calculated by GraphPad Prism software (San Diego, Calif.).

[4] = tested on: MDA-MB-231; type: cell-based; details: Homo sapiens, Table 6
[5] = tested on: A375;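 further: compounds tested from 0.1 nM up to 3 µM in four replicate wells, with absorbance read at 490 nm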
Description: as §1, §2

[6] = tested on: MDA-MB-453; type: cell-based, human; details: Homo sapiens, MDA-MB-453, Table 6
Description: as §1, §2

[7] = Table 6, read-out: IC50 (nM) Pancreatic cancer PANC-1
[8] = M14, read-out: IC50 (nM) Melanoma Cancer M14
[9] = Table 6, read-out: IC50 (nM) Pancreatic cancer Mia PaCa-2
[10] = MDA-MB-231, read-out: IC50 (nM) Breast Cancer MDA-MB-231
[11] = Homo sapiens, A-375, read-out: IC50 (nM) Melanoma Cancer A375, Table 6
[12] = Table 6, cells printed in μM, read-out: IC50 Pancreatic cancer PANC-1
[13] = cells printed in μM, read-out: IC50 Breast Cancer MDA-MB-453
[14] = M14, read-out: IC50 Melanoma Cancer M14
[15] = MDA-MB-231, read-out: IC50 Breast Cancer MDA-MB-231, cells printed in μM
[16] = Homo sapiens, A-375, read-out: IC50 Melanoma Cancer A375, Table 6, cells printed in μM
[17] = read-out: IC50 (nM) Breast Cancer MDA-MB-453
[18] = Table 6, cells printed in μM, read-out: IC50 Pancreatic cancer Mia PaCa-2

Row | SMILES | IC50 [1, 7] [nM] | IC50 [2, 8] [nM] | IC50 [3, 9] [nM] | IC50 [4, 10] [nM] | IC50 [5, 11] [nM] | IC50 [1, 12] [nM] | IC50 [6, 13] [µM] | IC50 [2, 14] [nM] | IC50 ([3]; Table 6, cell printed in MM, read-out: IC50 Pancreatic cancer Mia PaCa-2) [nM] | IC50 [4, 15] [nM] | IC50 [5, 16] [nM] | IC50 [6, 17] [µM] | IC50 [3, 18] [nM] | IC50 ([5]; read-out: IC50 (nM) Melanoma Cancer A375, Table 6) [nM]
1 | Cc1nc2c(c(-n3c(=O)[nH]c4cc(OC(F)(F)F)ccc43)n1)CCC2 [Compound 18a, 1-(2-methyl-6,7-dihydro-5H-cyclopenta[d]pyrimidin-4-yl)-5-(trifluoromethoxy)-1H-benzo[d]imidazol-2-one] | 164 ± 98.2 | 1080 ± 682 | 667 ± 652 | 919 ± 722 | 238 ± 126 |  |  |  |  |  |  |  |  | 
2 | COc1ccc2c(c1)nc(-c1ccc(OC)c(OC)c1OC)n2-c1nc(SC)nc2c1CCC2 [Compound 19, 5-methoxy-1-(2-(methylthio)-6,7-dihydro-5H-cyclopenta[d]pyrimidin-4-yl)-2-(2,3,4-trimethoxyphenyl)-1H-benzo[d]imidazole] |  |  |  |  |  | > 1250 | > 3 | > 3000 | > 1250 | > 3000 | > 3000 |  |  | 
3 | COc1ccc2c(c1)[nH]c(=O)c(=O)n2-c1nc(S(C)(=O)=O)nc2c1CCC2 [Compound 15, 6-methoxy-1-(2-(methylsulfone)-6,7-dihydro-5H-cyclopenta[d]pyrimidin-4-yl)quinoxaline-2,3(1H,4H)-dione] |  |  |  |  |  |  | > 3 | > 3000 |  | > 3000 | > 3000 |  |  | 
4 | COc1ccc2c(c1)NC(=O)CN2c1nc(N2CCCCC2)nc2c1CCC2 [Compound 12f, 7-methoxy-4-(2-(piperidin-1-yl)-6,7-dihydro-5H-cyclopenta[d]pyrimidin-4-yl)-3,4-dihydroquinoxalin-2(1H)-one] |  | 601 ± 117 |  | 690 ± 147 | ~436 | > 1250 |  |  |  |  |  | 0.499 ± 0.126 | > 1250 | 
5 | Cc1nc2c(c(N3CC(=O)Nc4cc(O)ccc43)n1)CCC2 [Compound 12q, 7-hydroxy-4-(2-methyl-6,7-dihydro-5H-cyclopenta[d]pyrimidin-4-yl)-3,4-dihydroquinoxalin-2(1H)-one] |  | 21.8 ± 4.5 | 34.3 ± 5.3 | 25.9 ± 4.9 | ~19 |  |  |  |  |  |  | 0.0135 ± 0.0033 |  | 
6 | COc1ccc2c(c1)[nH]c(=O)c(=O)n2-c1nc(OC)nc2c1CCC2 [Compound 16, 6-methoxy-1-(2-methoxy-6,7-dihydro-5H-cyclopenta[d]pyrimidin-4-yl)quinoxaline-2,3(1H,4H)-dione] |  |  |  |  |  | > 1250 | > 3 | > 3000 |  | > 3000 | > 3000 |  | > 1250 | 
7 | COc1ccc2c(c1)NC(=O)CN2c1nc(N(C)C)nc2c1CCC2 [Compound 12i, 4-(2-(dimethylamino)-6,7-dihydro-5H-cyclopenta[d]pyrimidin-4-yl)-7-methoxy-3,4-dihydroquinoxalin-2(1H)-one] |  | 21.1 ± 4.1 |  | 36.9 ± 6.1 | ~22.6 | > 1250 |  |  |  |  |  | 0.0161 ± 0.0047 | > 1250 | 22 ± 4.5
8 | COc1ccc2c(c1)NC(=O)CN2c1nc(N2CCN(C)CC2)nc2c1CCC2 [Compound 12d, 7-methoxy-4-(2-(4-methylpiperazin-1-yl)-6,7-dihydro-5H-cyclopenta[d]pyrimidin-4-yl)-3,4-dihydroquinoxalin-2(1H)-one] |  | 574 ± 124 |  | 1860 ± 650 | ~543 | > 1250 |  |  |  |  |  | 0.416 ± 0.107 | > 1250 | 
9 | Cc1nc2c(c(N3CC(=O)Nc4cc(OC(F)(F)F)ccc43)n1)CCC2 [Compound 12o, 4-(2-methyl-6,7-dihydro-5H-cyclopenta[d]pyrimidin-4-yl)-7-(trifluoromethoxy)-3,4-dihydroquinoxalin-2(1H)-one] | 42.4 ± 8.5 | 41.9 ± 5.6 | 83.5 ± 12.8 | 75.8 ± 13.1 | ~43.1 |  |  |  |  |  |  | 0.0349 ± 0.0064 |  | 
10 | COc1ccc2c(c1)[nH]c(=O)c(=O)n2-c1nc(SC)nc2c1CCC2 [Compound 14, 6-methoxy-1-(2-(methylthio)-6,7-dihydro-5H-cyclopenta[d]pyrimidin-4-yl)quinoxaline-2,3(1H,4H)-dione] |  |  |  |  |  |  |  |  |  |  | > 3000 |  |  | 
